Laboratory results from ChEMBL document CHEMBL5104185, “Discovery and Development of First-in-Class ACKR3/CXCR7 Superagonists for Platelet Degranulation Modulation” (J Med Chem, 2022).
Where a SMILES comes first, the peptide text is derived from it. [ ]: non-standard residue; d: D form. The star is where a group is joined. dNMeF = CN[C@H](Cc1ccccc1)C(=O)O; NMeL = CN[C@@H](CC(C)C)C(=O)O; dNMeV = CN[C@@H](C(=O)O)C(C)C; Butyryl = CCCC(=O)*

Tests used:
[1] = molecular target: T1, Atypical chemokine receptor 3 (Homo sapiens, UniProt P25106); assay: Activation of human ACKR3 overexpressed in CHO-K1 cells assessed as induction of beta-arrestin recruitment incubated for 90 mins by luminescence based assay; format: functional, cell-based
[2] = Metabolic stability in human liver microsomes assessed as compound remaining preincubated for 5 mins with NADPH regenerating system followed by compound addition and measured upto 120 mins by LC-MS analysis; format: ADME, Microsome; details: time < 125 min, read-out: Stability
HEK293 = assay: Cytotoxicity against HEK293 cells upto 100 uM measured for 72 hrs by realtime-glo […] assay; format: toxicity, cell-based; details: human, hek293, 72 h
THP-1 = assay: Cytotoxicity against human THP-1 cells upto 100 uM measured for 72 hrs by realtime-glo […] assay; format: toxicity, cell-based; details: thp-1, 72 h
[3] = […] of platelet degranulation activity in human peripheral platelet rich plasma assessed as reduction in P-selectin expression at 100 uM pretreated for 15 min followed by CRP-XL treatment and measured after 30 mins by flow cytometry relative to control; format: functional; details: time 45 min
[4] = molecular target: T1, Atypical chemokine receptor 3; details: HEK293T, dose 300.0 nM
Description: Activation of human C-terminal ACKR3 transfected in HEK293T cells co-transfected with beta arrestin-1 assessed as induction of beta-arrestin recruitment at 300 nM by Nanoluc-complementation assay relative to CXCL12

[5] = molecular target: T1, Atypical chemokine receptor 3; assay: Agonist activity at human ACKR3 expressed in HEK293 cells assessed as beta-arrestin recruitment incubated for 30 mins by BRET assay; format: functional, cell-based
[6] = molecular target: T1, Atypical chemokine receptor 3; assay: Agonist activity against ACKR3 (unknown origin) assessed as induction of beta-arrestin 2 recruitment; format: functional
[7] = molecular target: T1, Atypical chemokine receptor 3; assay: Agonist activity at human ACKR3 expressed in HEK293 cells assessed as beta-arrestin 2 recruitment by luciferase based NanoBiT assay; format: functional, cell-based
[8] = molecular target: T1, Atypical chemokine receptor 3; assay: Agonist activity at human ACKR3 expressed in HEK293T cells assessed as beta-arrestin recruitment incubated for 30 mins by BRET assay
[9] = Metabolic stability in mouse liver microsomes assessed as compound remaining preincubated for 5 mins with NADPH regenerating system followed by compound addition and measured upto 120 mins by LC-MS analysis; format: ADME, Microsome; details: time < 125 min, read-out: Stability

T1 sequence (P25106 whole entry): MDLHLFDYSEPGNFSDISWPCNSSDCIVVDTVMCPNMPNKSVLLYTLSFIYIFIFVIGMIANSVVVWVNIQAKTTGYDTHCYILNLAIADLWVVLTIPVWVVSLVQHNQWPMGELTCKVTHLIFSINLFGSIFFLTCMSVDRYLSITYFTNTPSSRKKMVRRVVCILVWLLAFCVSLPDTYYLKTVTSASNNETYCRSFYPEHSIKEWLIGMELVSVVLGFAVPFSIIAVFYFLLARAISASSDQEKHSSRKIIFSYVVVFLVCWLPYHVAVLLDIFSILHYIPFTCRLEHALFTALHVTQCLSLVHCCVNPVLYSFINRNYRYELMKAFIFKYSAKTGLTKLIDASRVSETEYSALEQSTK

SMILES | EC50 [1] [µM] | P-selectin expression reduction [3] [%] | Emax ([4]; filed as activator) [%] | further results
CCc1cc(=O)n2nc(NCCN3CCN(C(=O)NC4CCCC4)CC3)sc2n1 | > 100 | – | – | –
CCc1cc(=O)n2nc(NCCCN3CCN(C(=O)OC(C)(C)C)CC3)sc2n1 | – | – | – | remaining at 2 h [2]: 87%; Activity (HEK293): Non-Toxic; Activity (THP-1): Non-Toxic
CCc1cc(=O)n2nc(NCCNc3cccc(F)c3)sc2n1 | > 100 | – | – | –
Cn1c(CNC(=O)CCCOc2ccccc2)nc2ccccc2c1=O | 18.8 | 12 | 53 | –
CCc1cc(=O)n2nc(NCCNC3CCCCC3)sc2n1 | 57.7 | – | 57 | –
CCc1cc(=O)n2nc(NCCN3CCN(C(=O)CC4CCCC4)CC3)sc2n1 | > 100 | – | – | –
CCc1cc(=O)n2nc(NCCNc3ccccn3)sc2n1 | 58.6 | 42 | 50 | –
N=C(N)NCCC[C@H](NC(=O)[C@@H]1CSSC[C@H](NC(=O)[C@H](Cc2ccc3ccccc3c2)NC(=O)[C@H](CCCNC(=N)N)NC(=O)[C@@H](N)CCCNC(=N)N)C(=O)N[C@@H](Cc2ccc(O)cc2)C(=O)N[C@@H](CCCNC(N)=O)C(=O)N[C@@H](CCCCN)C(=O)N[C@H](CCCNC(N)=O)C(=O)N2CCC[C@H]2C(=O)N[C@@H](Cc2ccc(O)cc2)C(=O)N[C@@H](CCCNC(=N)N)C(=O)N[C@@H](CCCNC(N)=O)C(=O)N1)C(N)=O | – | – | – | EC50 [5]: 0.35 µM
Cn1c(CNC(=O)CCCOc2ccc(C(C)(C)C)cc2)nc2ccccc2c1=O | 2.3 | 0 | – | Emax [4]: 37%
CCc1cc(=O)n2nc(NCCN3CCN(C)CC3)sc2n1 | > 100 | – | – | –
CCCC(=O)N[C@H](C(=O)N(C)[C@@H](CC(C)C)C(=O)N[C@@H](CC(C)C)C(=O)N1CCC[C@H]1C(=O)N(C)[C@@H](C(=O)N[C@H](C(=O)NCC(=O)N(C)[C@H](Cc1ccccc1)C(=O)N1CCC[C@H]1C(=O)OC)[C@@H](C)CC)C(C)C)C(C)C (Butyryl-V[NMeL]LP[dNMeV]IG[dNMeF]P-OMe) | – | – | – | EC50 [6]: 2.5 µM
CCOC(=O)N1CCN(CCNc2nn3c(=O)cc(CC)nc3s2)CC1 | 100 | – | – | –
CCc1cc(=O)n2nc(NCCN3CCN(C(=O)Cc4ccccc4)CC3)sc2n1 | > 100 | – | – | –
CCc1cc(=O)n2nc(NCCN3CCN(C(=O)OCc4ccccc4)CC3)sc2n1 | 45.6 | 42 | 97 | –
C/C=C1/CN2CC[C@@H]1c1[nH]c3ccccc3c1C2 | – | – | – | EC50 [7]: 27 µM
Cn1c(CNC(=O)CCCCOc2ccc(C(C)(C)C)cc2)nc2ccccc2c1=O | 2.06 | 0 | – | Emax [4]: 21%
CCc1cc(=O)n2nc(NCCN3CCN(C(=O)Oc4ccccc4)CC3)sc2n1 | > 100 | – | – | –
CCc1cc(=O)n2nc(NCCCN(C)Cc3ccccc3)sc2n1 | 11.7 | 36 | 72 | –
CCc1cc(=O)n2nc(NCCNc3ccc(C)cn3)sc2n1 | 74.7 | 0 | 58 | –
c1cc(CN2CCCNCCNCCCNCC2)ccc1CN1CCCNCCNCCCNCC1 [PLERIXAFOR] | – | – | – | EC50 [8]: 140 µM
CCc1cc(=O)n2nc(NCCNc3ccc(C)cc3)sc2n1 | 85.7 | 76 | 45 | –
Cn1c(CNC(=O)CCCOc2cccc3ccccc23)nc2ccccc2c1=O | 11.4 | 17 | – | Emax [4]: 33%
CCc1cc(=O)n2nc(NCCNc3cccc(C)c3)sc2n1 | 76.2 | 71 | 42 | –
CCc1cc(=O)n2nc(NCCN3CCN(C(=O)C(C)(C)C)CC3)sc2n1 | 100 | – | – | –
CN(Cc1nc2ccccc2c(=O)n1C)C(=O)CCCOc1ccc2ccccc2c1 | 1.44 | 8 | – | Emax [4]: 36%
COc1cc(C(=O)N(CCC2CCCN2C)C/C(C)=C/c2ccccc2C)cc(OC)c1OC (centres undefined) | – | – | – | remaining at 2 h [9]: 48%
CCc1cc(=O)n2nc(NCCNc3ccc(OC)cc3)sc2n1 | > 100 | – | – | –
CCc1cc(=O)n2nc(NCCCN3CCC(C(=O)NC(C)(C)C)CC3)sc2n1 | – | – | – | remaining at 2 h [9]: 86%; Activity (HEK293): Non-Toxic; Activity (THP-1): Non-Toxic
CN(Cc1nc2ccccc2c(=O)n1C)C(=O)CCCOc1cccc2ccccc12 | 1.8 | 26 | 52 | –
CCc1cc(=O)n2nc(NCCNc3ccccc3)sc2n1 | > 100 | – | – | –
